The subject of assay [1] is Plasmodium falciparum D-6 clone (Sierra Leone). Put plainly: In vitro antimalarial assay, D-6 clone (tritiated hypoxanthine uptake). It is filed as cell-based. Particulars: for IC50: Plasmodium falciparum, read-out: IC50, D-6 Clone. As for the experimental part:
(§1) The in vitro assays were performed by using a modification of the semi-automated microdilution technique described earlier in Desjardins et al.^29 and Milhous et al.^30 Two P. falciparum malaria parasite clones, designated as Indochina (W-2) and Sierra Leone (D-6), were utilized in susceptibility testing. The W-2 clone is resistant to chloroquine, pyrimethamine, sulfadoxine, and quinine, and the other clone is resistant to mefloquine. The test extracts were dissolved in dimethylsulfoxide (DMSO) and serially diluted with media. The uptake of tritiated hypoxanthine was used as an index of inhibition of parasite growth.
(§2) Two P. falciparum malaria parasite clones, designated as Indochina (W-2) and Sierra Leone (D-6), were utilized in susceptibility testing. The W-2 clone is resistant to chloroquine, pyrimethamine, sulfadoxine, and quinine, and the other clone is resistant to mafloquine.
(§3) The test extracts were dissolved in DMSO and serially diluted with media. The uptake of tritiated hypoxanthine was used an an index of inhibition of parasite growth.

Assay [2] concerns Plasmodium falciparum W-2 clone (Indochina). Briefly: In vitro antimalarial assay, W-2 clone (tritiated hypoxanthine uptake). Type of assay: cell-based. Conditions: for IC50: Plasmodium falciparum, read-out: IC50, W-2 Clone. How it is done: as §1, §2, §3
Assay [3] has as its system W-2 and D-6 clones of Plasmodium falciparum. Put plainly: In vitro antimalarial assay, statements on both clones. It is filed as cell-based. Conditions: P. falciparum clones. How it is done: as §1
The in vitro assays were performed by using a modification of the semi-automated microdilution technique described earlier (Desjardins et al., 1979; Milhous et al., 1985). Two P. falciparum malaria parasite clones, designated as Indochina (W-2) and Sierra Leone (D-6), were utilized in susceptibility testing. The W-2 clone is resistant to chloroquine, pyrimethamine, sulfadoxine, and quinine, and the other clone is resistant to mafloquine.
as §3

A further assay relates to avian malaria. Particulars: in vivo; cited from earlier work.
For assay [4] the following is noted: relative to cocaine; cited from earlier work.
In the next assay the test system is malaria. Particulars: in vivo; cited from earlier work.
Assay [5] relates to Leishmania (Leishmania) chagasi MHOM/BR/84/BA-13. Particulars: previously determined; cited from earlier work.
For assay [6], the system named is Leishmania (Leishmania) chagasi promastigotes (MHOM/BR/84/BA-13). Put plainly: Growth inhibition of leishmania promastigotes over 96 hours. Type of assay: cell-based. As for the experimental part:
A clinical isolate of visceral Leishmania (Leishmania) chagasi, MHOM/BR/84/BA-13, was used for this study. This isolate was selected because sensitivity to SbV was previously determined using RAM. MHOM/BR/84/BA-13 is sensitive to Pentostam (sodium antimony gluconate) at 6 μg/ml Sb (20 μg/ml drug); and to Glucantime (N-methyl-glucamine antimoniate) at 80 μg/ml Sb (286 μg/ml drug)
Promastigotes of L. chagasi were grown in a serum-free, defined medium, MM2^43. The MM2 medium contained 120 μg/ml protein (10 μg/ml human transferrin, 10 μg/ml human insulin, 100 μg/ml defatted bovine albumin), plus 10 μg/ml low density bovine lipoprotein. […] Cultures were maintained at 25° C. during growth and incubation with drug.
Promastigotes were maintained in log phase growth for 3 successive transfers (48-72 hours apart) prior to radiorespirometric testing. Test extracts (or PBSS plus drug solvent [DMSO], for parallel control cultures) was added 24 hours after the third promastigote transfer to fresh growth medium. Incubation in the presence of plant extracts was continued for 96 additional hours while the parasites remained in mid-log phase growth. The rest of the radiorespirometric procedure was conducted as previously described^45.

Assay [7] has as its system Trypanosoma brucei brucei. Put plainly: In vivo antitrypanosomial activity, rat. Conditions: 7 mg i.p.
The test system of assay [8] is Trypanosoma brucei brucei. Briefly: In vivo antitrypanosomial activity, mouse. Particulars: 7 mg i.p.
In another assay the test system is opiate receptor. Particulars: from cell suspension culture of P. nitida; cited from earlier work.
Setting [9] is: Table 5, alkaloids and reference drugs.

≈ marks a conversion by molar mass, not a printed value. Like-named read-outs stand apart in the source and are kept apart here.

The IC50 is the concentration that inhibits the measured activity by half. For `C/C=C1/CN2[C@H]3C[C@H]1[C@@H](CO)[C@@H]2Cc1c3[nH]c2ccc(O)cc12` [Sarpagine, reference compound], the IC50 in assay [1] (setting [9]) came out at 16.6 µg/mL (≈ 53.6 µM); in assay [2] (setting [9]) it was 29.2 µg/mL (≈ 94 µM).

For `C/C=C1/C[N@+]2(C)CC[C@@]34c5ccccc5N[C@]32[C@@H](O)C[C@@H]1[C@@]4(CO)C(=O)OC` [Echitamine, reference compound], in assay [3], the “antimalarial activity in vitro” value was “no activity”. Besides, the “IC50, D-6 Clone” value in [1] (setting [9]) turned out to be 4.68 µg/mL. Further, the “IC50, W-2 Clone” value in assay [2] (setting [9]) was 7.25 µg/mL.

For the compound `COC(=O)[C@@H]1[C@H]2C[C@H]3c4[nH]c5ccccc5c4CCN3C[C@@H]2CC[C@@H]1O` [Yohimbine, reference compound], the IC50 amounted to 7.51 µg/mL (≈ 21.2 µM) in [1] and 6.16 µg/mL (≈ 17.4 µM) in assay [2].

Take `CC=C1CN2C3CC1C(CO)C2Cc1c3[nH]c2ccccc12` (stereo not shown) [PNF-S7]: the IC50 in assay [1] (setting [9]) was 7.6 µg/mL (≈ 25.8 µM); in assay [2] (setting [9]), 10.6 µg/mL (≈ 36 µM).

With `C[C@@H]1CC[C@H]2[C@@H](C)C(=O)O[C@@H]3O[C@@]4(C)CC[C@@H]1[C@]32OO4` [Artemisinin, reference compound], the IC50 in [1] (setting [9]) was found to be 0.004 µg/mL (≈ 0.0142 µM); in [2] (setting [9]), 0.002 µg/mL (≈ 0.00708 µM).

Consider `C/C=C1/CN2CC[C@@]34c5cc(O)ccc5N(C)[C@]35OC[C@@]4(C(=O)OC)[C@@H]1C[C@H]25` [Akuammine], for which the “activity against avian malaria” value with avian malaria is “inactive against avian malaria”. In addition, the IC50 in [1] (setting [9]) was determined as 0.95 µg/mL (≈ 2.48 µM); in assay [2] (setting [9]), 0.66 µg/mL (≈ 1.73 µM). For the same compound, the “local anesthetic action” value in assay [4] was “local anesthetic action comparable to that of cocaine”. The “activity in clinical trials” value in the assay with malaria is “inactive”.

Regarding `COC(=O)C1=CO[C@@H](C)[C@@H]2CN3CCc4c([nH]c5ccccc45)C3C[C@H]12` (stereo partly shown) [Alstonine (tetrahydro-)], the IC50 was determined as 2.76 µg/mL (≈ 7.83 µM) in assay [1] (setting [9]) and 2.86 µg/mL (≈ 8.11 µM) in assay [2] (setting [9]).

As for `CCN(CC)CCCC(C)Nc1ccnc2cc(Cl)ccc12` (stereo not shown) [Chloroquine, reference compound], the IC50 worked out at 0.006 µg/mL (≈ 0.0188 µM) in [1] and 0.04 µg/mL (≈ 0.125 µM) in [2].

Turning to `CC=C1CN2CCC34c5ccccc5N(C)C35OCC4(C(=O)OC)C1CC25` (stereo not shown) [.PSI.-Aukuammigine], the IC50 in [1] came to 0.83 µg/mL (≈ 2.26 µM); in assay [2], 0.1 µg/mL (≈ 0.273 µM).

Turning to `CC[C@H]1[C@@H]2C[C@H]3[C@@H]4N(C)c5ccccc5[C@]45C[C@@H]([C@@H]2[C@H]5O)N3[C@@H]1O` [Ajmaline, reference compound], the values for the IC50 in [1] (setting [9]) and in [2] (setting [9]) were 4.7 µg/mL (≈ 14.4 µM) and 1.24 µg/mL (≈ 3.8 µM), respectively.

With `C/C=C1/CN2CC[C@]34C(=C(C(=O)OC)[C@H]1C[C@H]23)Nc1ccccc14` [Akuammicine], the results for the IC50 in [1] (setting [9]) and in [2] (setting [9]) were 0.45 µg/mL (≈ 1.4 µM) and 0.73 µg/mL (≈ 2.26 µM), respectively.

For the compound “N-methyl-glucamine antimoniate [Glucantime]”, in [5], the “concentration at which isolate is sensitive, as Sb” value was 80 μg/ml Sb and the “concentration at which isolate is sensitive, as drug” value is reported as 286 μg/ml drug.

Turning to `COC(=O)C1=CO[C@@H](C)[C@@H]2C[n+]3ccc4c([nH]c5ccccc54)c3C[C@H]12` [Alstonine], the “inhibition of leishmania promastigotes, ranking” value in [6] (alkaloids isolated from the active fraction) is on record as “greatest inhibition”. Moreover, in assay [6] (leishmania promastigotes), the “concentration of the highest growth inhibition” value came to 50 µg/mL and the “growth inhibition, dose relation” value was “dose related activity”. Also, the IC50 in assay [1] (setting [9]) worked out at 0.02 µg/mL. The IC50 in assay [2] (setting [9]) was determined as 0.09 µg/mL.

On to sodium antimony gluconate [Pentostam], for which, in assay [5], the “concentration at which isolate is sensitive, as Sb” value is reported as 6 μg/ml Sb and the “concentration at which isolate is sensitive, as drug” value is 20 μg/ml drug.

As for `N=C(N)c1ccc(N=NNc2ccc(C(=N)N)cc2)cc1` [Berenil], the “Day of 0% Parasite Count” value was 8 days in assay [7] and 6 days in [8].

On to `CC=C1CN2C3CC45c6ccccc6NC4(O3)C2CC1C5(COC(C)=O)C(=O)OC` (stereo not shown) [Picraline], for which the IC50 in assay [1] (setting [9]) was 0.78 µg/mL (≈ 1.9 µM); in [2] (setting [9]) it was 0.53 µg/mL (≈ 1.29 µM).

On to `C=C1c2[nH]c3ccccc3c2CCN2CC[C@@H]1/C(=C\C)C2` [pericine], for which the “CNS activity, opiate receptor binding” value in the assay with opiate receptor is reported as “CNS active”.
